According to the NIST ThermoML archive (doi:10.1016/j.jct.2013.05.051):

Experiment: xn = mol fraction of the nth substance listed
Conditions: Liquid, Vibrating tube method

CCCCCCCO [heptan-1-ol] + CCCCCCC
mass density [kg/m3]
Conditions	x1 = 0.1493	x1 = 0.3215	x1 = 0.5226	x1 = 0.6698	x1 = 0.8469	x1 = 1
298.15 K, 100 kPa	699.7	723.4	751.3	772.6	804.4	818.7
298.15 K, 1000 kPa	700.6	724.2	752.1	773.3	805.1	819.3
298.15 K, 5000 kPa	704.1	727.6	755.2	776.2	807.8	821.9
298.15 K, 10000 kPa	708.4	731.6	759	779.7	811.1	824.9
298.15 K, 15000 kPa	712.4	735.4	762.6	783.2	814.2	828
298.15 K, 20000 kPa	716.2	739.1	765.9	786.3	817.2	830.8
298.15 K, 25000 kPa	719.8	742.4	769.1	789.4	820	833.5
298.15 K, 30000 kPa	723.3	745.8	772.3	792.5	822.8	836.3
298.15 K, 35000 kPa	726.5	748.9	775.3	795.3	825.4	838.8
298.15 K, 40000 kPa	729.7	751.9	778.2	798	828.1	841.3
298.15 K, 45000 kPa	732.8	754.9	781	800.7	830.6	843.8
298.15 K, 50000 kPa	735.6	757.7	783.6	803.3	833	846.2
298.15 K, 55000 kPa	738.5	760.5	786.3	805.9	835.4	848.5
298.15 K, 60000 kPa	741.2	763.2	788.8	808.3	837.7	850.8
298.15 K, 65000 kPa	743.9	765.7	791.3	810.7	839.9	853
298.15 K, 70000 kPa	746.5	768.2	793.7	813.1	842.2	855.2
298.15 K, 80000 kPa	751.4	773	798.4	817.6	846.4	859.4
298.15 K, 90000 kPa	756.2	777.7	802.8	821.9	850.6	863.5
298.15 K, 100000 kPa	760.6	782	807	826	854.5	867.3
298.15 K, 110000 kPa	764.9	786.1	811.2	830	858.4	871.1
298.15 K, 120000 kPa	768.9	790.1	815	833.8	861.9	874.6
298.15 K, 130000 kPa	772.8	793.9	818.7	837.4	865.5	878.1
298.15 K, 140000 kPa	776.5	797.6	822.3	840.9	868.9	881.5
313.15 K, 100 kPa	686.8	711	739.3	760.9	793.4	808
313.15 K, 1000 kPa	687.7	711.8	740.1	761.7	794	808.6
313.15 K, 5000 kPa	691.7	715.5	743.5	764.9	796.9	811.4
313.15 K, 10000 kPa	696.4	719.9	747.6	768.7	800.4	814.7
313.15 K, 15000 kPa	700.8	724.1	751.5	772.3	803.8	817.9
313.15 K, 20000 kPa	704.9	728	755.2	775.8	807	821
313.15 K, 25000 kPa	708.6	731.5	758.4	778.9	809.9	823.8
313.15 K, 30000 kPa	712.6	735.3	762	782.3	813	826.8
313.15 K, 35000 kPa	716.1	738.7	765.2	785.4	815.9	829.5
313.15 K, 40000 kPa	719.4	741.9	768.2	788.3	818.5	832.1
313.15 K, 45000 kPa	722.7	745	771.2	791.1	821.2	834.7
